Assay results taken from patent US7625583B2, “Dietary lipids for improving skin and coat of pets” (Nestec S.A., priority 2000, dated 2009).
Converted amounts (≈) assume the structure as drawn.

How the values were obtained:
[1] = tested on: Pneumococci, Streptococcus, Corynebacteria, Micrococci, Candida, Staphylococcus aureus; details: several skin pathogens; cited from earlier work
Staphylococcus aureus = test: Colorimetric AlamarBlue microtiterplate MIC determination of fatty acids; format: cell-based; details: four S. aureus strains, 24 h at 30° C.
Text: (§1) A colorimetric method for quantitative measurement of the susceptibility of Staphylococcus aureus, Staphylococcus intermedius and Malassezia pachydermatis strains to fatty acids was developed. This method is based on the assays described by Hogan, J. S., et al, 1987, J. Dairy, Sci., 70, 927-934 and Tiballi, R. N., et al., 1995, J. Clin. Microbiol., 33 (4), 915-917.
(§2) The microorganisms used in this study were Staphylococcus aureus FSM 51, 52, 84 (food isolates), ATCC 6538, Staphylococcus intermedius BCCM™/LMG 9079, 13351 and Malassezia pachidermatis ATCC 14522. Staphylococcus strains were grown in Lab-Lemco broth (LL broth, Oxoid CM 15) for 18-20 h at 30° C. and Malassezia was cultivated for 5 days at 30° C. in liquid Dixon medium (30 g Malt extract, 20 g Oxbile, 15 g Agar, 5 g Mycological peptone, 2.5 g Glycerol mono-oleate, 10 ml Tween™ 40, pH=5.4±0.2). After washing in saline (Oxoid, BR53), cell pellets were resuspended in LL broth supplemented with 0.15% agar (w/v).
(§3) Minimal inhibitory concentrations (MICs) of palmitoleic, lauric and oleic acids (NU-CHECK-PREP, Inc, DK, U-40-A, N-12-A, U-46-A respectively) were investigated in a microtiterplate assay using an oxidation-reduction dye, AlamarBlue™ (Interchim, Fr), as an indicator of growth. Each plate was set up with each of the test microorganisms as follows: one column, 110 μl of sterile LL broth supplemented with 0.15% agar (negative control), one column, 100 μl of sterile LL broth supplemented with 0.15% agar plus 10 μl of test microorganism (positive control), other columns, 100 μl of serial two fold dilutions of the test fatty acids (diluted in LL broth supplemented with 0.15% agar) plus 10 μl of microorganism (final concentration of 10^3-10^4 cell/ml). Plates were incubated at 30° C. in ambient air and examined at 24 h and 4-5 days for Staphylococcus strains and Malassezia respectively. After incubation period, 25 μl of AlamarBlue™ solution (¼ diluted with 10 mM Phosphate Buffered Saline 0.05% Tween 20, Sigma P3563) were added to each well. After a second incubation of 2 h (Staphylococcus) and 1 day (Malassezia) at 30° C., endpoints were determined visually by observing a color change from blue (no growth) to pink (growth). MIC was defined as the lowest fatty acid concentration showing no growth (any color change).

Malassezia pachydermatis = test: as above; format: cell-based; details: one M. pachydermatis strain, 4-5 days at 30° C.
Text: as §1, §2, §3

[2] = tested on: Staphylococcus intermedius; test: as above; format: cell-based; details: two S. intermedius strains, 24 h at 30° C.
Text: as §1, §2, §3

[3] = human trial, 600 mg/day for 24 weeks; cited from earlier work

MIC range (Staphylococcus aureus) [mg/mL]	MIC range (Malassezia pachydermatis) [mg/mL]	MIC range [2] [mg/mL]	SMILES	Inhibition of skin pathogens in vitro (in words) [1]	Improvement of hand dermatitis (in words) [3]
>25	>25	>25	CCCCCCCC/C=C\CCCCCCCC(=O)O [Oleic, oleic acid]	–	–
0.02 (≈ 78.6 µM)	–	0.02 to 0.1	CCCCCC/C=C\CCCCCCCC(=O)O [Palmitoleic, palmitoleic acid]	inhibitory	–

The next lines start with the compound.

SMILES	MIC range (Staphylococcus aureus) [mg/mL]	MIC range (Malassezia pachydermatis) [mg/mL]	MIC range [2] [mg/mL]	Inhibition of skin pathogens in vitro (in words) [1]	Improvement of hand dermatitis (in words) [3]
CCCCCCCCCCCC(=O)O [Lauric, lauric acid]	<0.2 to 0.4	<0.2	<0.2 to 0.8	inhibitory	–
CCCCC/C=C\C/C=C\CCCCCCCC(=O)O [linoleic acid]	–	–	–	inhibitory	–
CCCCC/C=C\C/C=C\C/C=C\CCCCC(=O)O [γ-linolenic acid]	–	–	–	–	did not improve hand dermatitis significantly
